In ChEMBL document CHEMBL2073779, “pH-dependent bidirectional transport of weakly basic drugs across Caco-2 monolayers: implications for drug-drug interactions” (Pharm Res, 2003):

Molecular target: ATP-dependent translocase ABCB1 (Homo sapiens, UniProt P08183)
Experiment: TP_TRANSPORTER: transepithelial transport in Caco-2 cells
Type: functional, cell-based

Sequence of ATP-dependent translocase ABCB1 (P08183 whole entry): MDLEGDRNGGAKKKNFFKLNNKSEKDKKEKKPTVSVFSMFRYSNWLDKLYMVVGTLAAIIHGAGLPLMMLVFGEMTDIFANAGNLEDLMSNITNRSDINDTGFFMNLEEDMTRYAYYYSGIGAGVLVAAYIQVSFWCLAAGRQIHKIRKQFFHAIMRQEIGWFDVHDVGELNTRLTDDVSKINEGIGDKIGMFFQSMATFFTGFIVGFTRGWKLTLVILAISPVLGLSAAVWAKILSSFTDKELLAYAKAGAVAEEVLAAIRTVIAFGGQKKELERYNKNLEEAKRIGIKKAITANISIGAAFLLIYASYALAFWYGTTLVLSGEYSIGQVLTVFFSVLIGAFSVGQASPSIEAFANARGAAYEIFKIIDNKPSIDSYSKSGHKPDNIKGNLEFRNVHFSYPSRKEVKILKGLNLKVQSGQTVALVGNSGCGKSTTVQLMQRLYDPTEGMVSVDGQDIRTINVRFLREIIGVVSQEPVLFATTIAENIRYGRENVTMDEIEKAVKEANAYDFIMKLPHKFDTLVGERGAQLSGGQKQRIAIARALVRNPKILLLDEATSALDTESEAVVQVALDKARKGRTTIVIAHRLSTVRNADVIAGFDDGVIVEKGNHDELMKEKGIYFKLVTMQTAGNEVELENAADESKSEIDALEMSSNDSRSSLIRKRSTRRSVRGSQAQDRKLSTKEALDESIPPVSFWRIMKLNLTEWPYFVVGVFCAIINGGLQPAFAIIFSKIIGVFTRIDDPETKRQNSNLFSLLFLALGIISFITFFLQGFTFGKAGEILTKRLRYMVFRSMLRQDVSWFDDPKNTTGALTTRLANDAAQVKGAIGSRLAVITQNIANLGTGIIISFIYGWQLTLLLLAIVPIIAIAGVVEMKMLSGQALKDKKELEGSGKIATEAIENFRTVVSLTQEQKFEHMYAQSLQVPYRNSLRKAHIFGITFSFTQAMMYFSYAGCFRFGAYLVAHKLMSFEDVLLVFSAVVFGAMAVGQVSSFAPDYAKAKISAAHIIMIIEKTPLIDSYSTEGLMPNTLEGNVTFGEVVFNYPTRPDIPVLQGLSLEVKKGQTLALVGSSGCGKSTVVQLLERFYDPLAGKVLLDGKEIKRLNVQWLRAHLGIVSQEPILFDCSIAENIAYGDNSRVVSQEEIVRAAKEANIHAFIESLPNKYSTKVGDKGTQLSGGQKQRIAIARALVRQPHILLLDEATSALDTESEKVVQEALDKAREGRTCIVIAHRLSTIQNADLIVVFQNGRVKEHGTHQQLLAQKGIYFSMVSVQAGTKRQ

Row | Activity | SMILES
1 | substrate [+] | C[C@H]1O[C@@H](O[C@H]2[C@@H](O)C[C@H](O[C@H]3[C@@H](O)C[C@H](O[C@H]4CC[C@@]5(C)[C@H](CC[C@@H]6[C@@H]5C[C@@H](O)[C@]5(C)[C@@H](C7=CC(=O)OC7)CC[C@]65O)C4)O[C@@H]3C)O[C@@H]2C)C[C@H](O)[C@@H]1O [DIGOXIN]
2 | is not a substrate [-] | COCCc1ccc(OCC(O)CNC(C)C)cc1 (configuration not stated) [METOPROLOL]
